In patent US11155525B2 (Sanford Burnham Prebys Medical Discovery Institute, priority 2015, dated 2021):

Target: T1, human apelin receptor (Homo sapiens, UniProt P35414)
T1 construct: host or cells: CHO cells
T1 sequence (P35414 1-380): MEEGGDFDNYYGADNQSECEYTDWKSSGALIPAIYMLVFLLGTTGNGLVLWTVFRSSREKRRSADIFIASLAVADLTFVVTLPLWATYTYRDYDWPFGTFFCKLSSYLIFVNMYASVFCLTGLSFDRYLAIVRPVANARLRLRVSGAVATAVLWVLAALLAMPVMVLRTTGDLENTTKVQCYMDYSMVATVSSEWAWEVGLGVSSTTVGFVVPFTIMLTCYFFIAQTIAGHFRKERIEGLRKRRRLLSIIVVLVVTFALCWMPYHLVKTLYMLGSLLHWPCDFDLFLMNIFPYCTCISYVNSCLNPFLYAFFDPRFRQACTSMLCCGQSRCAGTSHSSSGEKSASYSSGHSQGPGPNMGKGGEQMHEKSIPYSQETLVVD
Experiment: Measurement of apelin receptor agonist activity (cell-based assay determining the amount of intracellular cAMP)
Settings: CHO cells stably expressing the human apelin receptor, Forskolin 10 μM, 30 minutes, 100% efficacy = [Pyr1]-apelin-13 0.300 μM, concentration giving 50% efficacy
Method: Measurement of Apelin Receptor Agonist Activity
The apelin receptor agonist activity of the compound represented by formula (I) or (II) of the present invention was measured by cell-based assay for determining the amount of intracellular cAMP.
CHO cells (DiscoveRx Corp.) stably expressing the human apelin receptor were inoculated to wells of a microtiter plate and cultured overnight at 37° C. under conditions of 5% CO2.
Each test compound and Forskolin were added to the wells at the same time. Specifically, the test compound dissolved in DMSO was diluted with a Forskolin-containing buffer [DMEM/F-12, HEPES, no phenol red (#11039, GIBCO)] to prepare a mixed solution containing the test compound at a final concentration of […] (common ratio: 3, serial dilution: 11), Forskolin at a final concentration of 10 μM, and DMSO at a final concentration of 0.3% v/v, which was then added to the wells (N═4).
After 30 minutes, the cells were lysed, and HitHunter cAMP XS+ Assay #90-0075L (DiscoveRx Corp.) was added to the cell lysate. The mixture was left overnight, and the resulting chemiluminescence signals were then detected using Analyst GT (Molecular Devices LLC.) to determine the amount of cAMP.
The amount of cAMP determined by the addition of a positive control [Pyr1]-apelin-13 (final concentration: 0.300 μM) and Forskolin (final concentration: 10 μM) at the same time was used as an index to define 100% efficacy. The amount of cAMP determined by the addition of Forskolin (final concentration: 10 μM) alone was used as an index to define 0% efficacy.
A dose response curve was prepared from the final concentration of the test compound and the determined amount of cAMP using Sigmaplot 12.0.

SMILES | EC50 [nM]
CCCCc1nnc(SCC(=O)O)n1-c1c(OC)cccc1OC [Example 29, {[5-Butyl-4-(2,6-dimethoxyphenyl)-4H-1,2,4-triazol-3-yl]sulfanyl}acetic acid] | 812
Cc1ccc(-c2nnc(SCC(=O)O)n2-c2c(Cl)cccc2Cl)o1 [Example 32, {[4-(2,6-Dichlorophenyl)-5-(5-methylfuran-2-yl)-4H-1,2,4-triazol-3-yl]sulfanyl}acetic acid] | 3980
COc1cccc(OC)c1-n1c(SCC(=O)O)nnc1C1CCCC1 [Example 33, {[5-Cyclopentyl-4-(2,6-dimethoxyphenyl)-4H-1,2,4-triazol-3-yl]sulfanyl}acetic acid] | 2440
COC(=O)C(Sc1nnc(-c2ccc(C)o2)n1-c1c(OC)cccc1OC)c1cccc2ccccc12 (centres unmarked) [Example 37, Methyl {[4-(2,6-dimethoxyphenyl)-5-(5-methylfuran-2-yl)-4H-1,2,4-triazol-3-yl]sulfanyl}(naphthalen-1-yl)acetate] | 825
COc1cccc(OC)c1-n1c(SCc2ccccc2)nnc1-c1ccc(C)o1 [Example 40, 3-(Benzylsulfanyl)-4-(2,6-dimethoxyphenyl)-5-(5-methylfuran-2-yl)-4H-1,2,4-triazole] | 1110
COc1cccc(OC)c1-n1c(Br)nnc1-c1ccc(C)o1 [Example 44, 3-Bromo-4-(2,6-dimethoxyphenyl)-5-(5-methylfuran-2-yl)-4H-1,2,4-triazole] | 1210
COC(=O)c1cccc(-c2nnc(-c3ccc(C)o3)n2-c2c(OC)cccc2OC)c1 [Example 45, Methyl 3-[4-(2,6-dimethoxyphenyl)-5-(5-methylfuran-2-yl)-4H-1,2,4-triazol-3-yl]benzoate] | 1320
COC(=O)c1ccc(-c2nnc(-c3ccc(C)o3)n2-c2c(OC)cccc2OC)cc1 [Example 47, Methyl 4-[4-(2,6-dimethoxyphenyl)-5-(5-methylfuran-2-yl)-4H-1,2,4-triazol-3-yl]benzoate] | 419
COc1cccc(OC)c1-n1c(SCCCCC(=O)O)nnc1-c1ccc(C)o1 [Example 49, 5-{[4-(2,6-Dimethoxyphenyl)-5-(5-methylfuran-2-yl)-4H-1,2,4-triazol-3-yl]sulfanyl}pentanoic acid] | 393
COc1cccc(OC)c1-n1c(SCCCCCC(=O)O)nnc1-c1ccc(C)o1 [Example 50, 6-{[4-(2,6-Dimethoxyphenyl)-5-(5-methylfuran-2-yl)-4H-1,2,4-triazol-3-yl]sulfanyl}hexanoic acid] | 1320
COc1cccc(OC)c1-n1c(/C=C/C#N)nnc1-c1ccc(C)o1 [Example 53, (2E)-3-[4-(2,6-Dimethoxyphenyl)-5-(5-methylfuran-2-yl)-4H-1,2,4-triazol-3-yl]prop-2-enenitrile] | 2650
COc1cccc(OC)c1-n1c(/C=C/C(=O)N(C)OC)nnc1-c1ccc(C)o1 [Example 54, (2E)-3-[4-(2,6-Dimethoxyphenyl)-5-(5-methylfuran-2-yl)-4H-1,2,4-triazol-3-yl]-N-methoxy-N-methylprop-2-enamide] | 1200
COC(=O)/C=C\c1nnc(-c2ccc(C)o2)n1-c1c(OC)cccc1OC [Example 55, Methyl (2Z)-3-[4-(2,6-dimethoxyphenyl)-5-(5-methylfuran-2-yl)-4H-1,2,4-triazol-3-yl]prop-2-enoate] | 1920
COc1cccc(OC)c1-n1c(-c2ccccc2)nnc1-c1ccc(C)o1 [Example 57, 4-(2,6-Dimethoxyphenyl)-3-(5-methylfuran-2-yl)-5-phenyl-4H-1,2,4-triazole] | 1210
COC(=O)c1ccccc1-c1nnc(-c2ccc(C)o2)n1-c1c(OC)cccc1OC [Example 58, Methyl 2-[4-(2,6-dimethoxyphenyl)-5-(5-methyl-2-furyl)-4H-1,2,4-triazol-3-yl]benzoate] | 2800
COc1cccc(OC)c1-n1c(-c2ccc(C)o2)nnc1-c1ccccc1C(=O)O [Example 59, 2-[4-(2,6-Dimethoxyphenyl)-5-(5-methylfuran-2-yl)-4H-1,2,4-triazol-3-yl]benzoic acid] | 349
COc1cccc(OC)c1-n1c(SCC(=O)O)cnc1-c1ccc(C)o1 [Example 60, {[1-(2,6-Dimethoxyphenyl)-2-(5-methylfuran-2-yl)-1H-imidazol-5-yl]sulfanyl}acetic acid] | 1300

The next compounds have a lower EC50 than those just listed; values first:

EC50 [nM] | SMILES
332 | COc1cccc(OC)c1-n1c(SCC(=O)O)nnc1-c1cccs1 [Example 30, {[4-(2,6-Dimethoxyphenyl)-5-(thiophen-2-yl)-4H-1,2,4-triazol-3-yl]sulfanyl}acetic acid]
217 | COc1cccc(OC)c1-n1c(/C=C/c2cc(=O)n3cc(C)ccc3n2)nnc1-c1ccc(C)o1 [Example 52, 2-{(E)-2-[4-(2,6-Dimethoxyphenyl)-5-(5-methylfuran-2-yl)-4H-1,2,4-triazol-3-yl]ethenyl}-7-methyl-4H-pyrido[1,2-a]pyrimidin-4-one]
174 | CCc1cccc(CC)c1-n1c(SCC(=O)O)nnc1-c1ccc(C)o1 [Example 31, {[4-(2,6-Diethylphenyl)-5-(5-methylfuran-2-yl)-4H-1,2,4-triazol-3-yl]sulfanyl}acetic acid]
152 | COc1ccnc(OC)c1-n1c(SCC(=O)O)nnc1-c1ccc(C)o1 [Example 34, {[4-(2,4-Dimethoxypyridin-3-yl)-5-(5-methylfuran-2-yl)-4H-1,2,4-triazol-3-yl]sulfanyl}acetic acid]
111 | CCOC(=O)C(=O)/C=C/c1nnc(-c2ccc(C)o2)n1-c1c(OC)cccc1OC [Example 51, Ethyl (3E)-4-[4-(2,6-dimethoxyphenyl)-5-(5-methylfuran-2-yl)-4H-1,2,4-triazol-3-yl]-2-oxobut-3-enoate]
108 | COc1cccc(OC)c1-n1c(SC(C)(C)C(=O)O)nnc1-c1ccc(C)o1 [Example 36, 2-{[4-(2,6-Dimethoxyphenyl)-5-(5-methylfuran-2-yl)-4H-1,2,4-triazol-3-yl]sulfanyl}-2-methylpropanoic acid]
96 | COc1cccc(OC)c1-n1c(-c2cccc(C(=O)O)c2)nnc1-c1ccc(C)o1 [Example 46, 3-[4-(2,6-Dimethoxyphenyl)-5-(5-methylfuran-2-yl)-4H-1,2,4-triazol-3-yl]benzoic acid]
48 | COc1cccc(OC)c1-n1c(/C=C\C(=O)O)nnc1-c1ccc(C)o1 [Example 56, (2Z)-3-[4-(2,6-Dimethoxyphenyl)-5-(5-methylfuran-2-yl)-4H-1,2,4-triazol-3-yl]prop-2-enoic acid]
45 | COc1cccc(OC)c1-n1c(SC(C)C(=O)O)nnc1-c1ccc(C)o1 (centres unmarked) [Example 41, 2-{[4-(2,6-Dimethoxyphenyl)-5-(5-methylfuran-2-yl)-4H-1,2,4-triazol-3-yl]sulfanyl}propanoic acid]
39 | COc1cccc(OC)c1-n1c(SC(C(=O)O)C(C)C)nnc1-c1ccc(C)o1 (centres unmarked) [Example 43, 2-{[4-(2,6-Dimethoxyphenyl)-5-(5-methylfuran-2-yl)-4H-1,2,4-triazol-3-yl]sulfanyl}-3-methylbutanoic acid]
22 | COc1cccc(OC)c1-n1c(-c2ccc(C(=O)O)cc2)nnc1-c1ccc(C)o1 [Example 48, 4-[4-(2,6-Dimethoxyphenyl)-5-(5-methylfuran-2-yl)-4H-1,2,4-triazol-3-yl]benzoic acid]
12 | CCCC(Sc1nnc(-c2ccc(C)o2)n1-c1c(OC)cccc1OC)C(=O)O (centres unmarked) [Example 42, 2-{[4-(2,6-Dimethoxyphenyl)-5-(5-methylfuran-2-yl)-4H-1,2,4-triazol-3-yl]sulfanyl}pentanoic acid]
11 | COc1cccc(OC)c1-n1c(SC(Cc2ccccc2)C(=O)O)nnc1-c1ccc(C)o1 (centres unmarked) [Example 39, 2-{[4-(2,6-Dimethoxyphenyl)-5-(5-methylfuran-2-yl)-4H-1,2,4-triazol-3-yl]sulfanyl}-3-phenylpropanoic acid]
10 | COc1cccc(OC)c1-n1c(SC(C(=O)O)c2ccccc2)nnc1-c1ccc(C)o1 (centres unmarked) [Example 35, {[4-(2,6-Dimethoxyphenyl)-5-(5-methylfuran-2-yl)-4H-1,2,4-triazol-3-yl]sulfanyl}(phenyl)acetic acid]
9 | COc1cccc(OC)c1-n1c(SC(C(=O)O)c2cccc3ccccc23)nnc1-c1ccc(C)o1 (centres unmarked) [Example 38, {[4-(2,6-Dimethoxyphenyl)-5-(5-methylfuran-2-yl)-4H-1,2,4-triazol-3-yl]sulfanyl}(naphthalen-1-yl)acetic acid]
